Measurements: article PMC13489962, “Small-molecule modulation of β-arrestins” (Nature, 2026)

How the values were obtained:
[1] = tested on: Gαi; experiment: ITC binding to purified Gαi
Experimental: ITC measurements were performed on a MicroCal iTC200 system at 25 °C. Prior to ITC experiments, all proteins (βARR1, βARR2 or βARR1 mutants) were extensively dialysed against 20 mM HEPES (pH 7.4), 100 mM NaCl, and 3 μM TCEP. Protein concentrations were determined by spectrophotometry at 280 nm, using extinction coefficients calculated from each protein sequence via the ProtParam program. The dialysis buffer was used to dilute DMSO stock solutions of β-arrestin small-molecule modulators to their final concentrations for measurements. For each ITC experiment, β-arrestin modulators (Cmpd-5 at 350 μM, Cmpd-46 at 450 μM, and Cmpd-64 at 450 μM) were loaded into the syringe and titrated into the calorimetric cell containing βARR1, βARR1 mutants or βARR2 (at about 30–40 μM, depending on the protein and experiment). Additional ITC experiments were also performed using purified GST-fused Gα subunits (Gαs, Gαq and Gαi; about 30 μM) and Gαiβγ heterotrimer (about 30 μM). Gα subunits were prepared in the same buffer (20 mM HEPES, pH 7.4, 100 mM NaCl, 3 μM TCEP), whereas the Gαiβγ heterotrimer was maintained in buffer supplemented with 0.05% DDM and 10 μM GDP, with matched DMSO carrier conditions. Modulators (300 μM) or corresponding DMSO controls were loaded and titrated as described above. The reference cell was filled with distilled water. In all experiments, the titration sequence typically consisted of an initial 0.4 μl injection, followed by 19 injections of 2 μl each, with a 180-s interval between injections to allow thermal power to return to baseline. During the experiment, the reference power was set to 7 μcal s^−1, and the sample cell was stirred continuously at 750 rpm. […] Data were analysed and fit using a one-site independent binding model to obtain the equilibrium dissociation constant, Kd (from the association constant Ka = 1/Kd), stoichiometry (N), and thermodynamic parameters including enthalpy (ΔH) and entropy (−TΔS) of binding. Data were analysed using MicroCal PEAQ-ITC analysis software (v1.1.0.1262).

[2] = tested on: β2AR desensitization (cAMP); experiment: FRET (ICUE2) cAMP accumulation, β2AR desensitization; assay type: cell-based; conditions: 40 μM, 5 min; Iso 10 μM; HEK293 cells stably expressing β2AR
Experimental: To measure cellular cAMP production in live cells mediated by stimulatory G protein, Gαs-coupled β2AR activation, FRET-based Epac sensors were used as described previously. The Epac2 (ICUE2) sensor contains a CFP and YFP FRET pair. HEK293 cells stably expressing ICUE2 were plated in poly-D-lysine-coated, black, clear-bottom 96-well plates (Corning) at a density of 50,000 cells per well. At least 16 h after plating, cells were washed with PBS and incubated in HEPES-buffered saline solution (10 mM HEPES, 150 mM NaCl, 5 mM KCl, 1.5 mM MgCl2, 1.5 mM CaCl2, 10 mM glucose, 0.2% BSA, pH 7.4) for 1 h at 37 °C. Cells were then treated with either β-arrestin small-molecule modulators (40 μM) or DMSO for 5 min, and baseline fluorescence was monitored. Real-time cAMP measurement was initiated by stimulating cells with 10 μM Iso at 37 °C. FRET changes corresponding to cAMP accumulation were measured as changes in the background-subtracted 480 nm/535 nm fluorescence emission ratio (CFP/YFP), reflecting changes in cAMP levels. The entire cAMP accumulation profile was quantified by calculating the AUC for the time course. To assess the effect of modulators on the agonist-induced cAMP response, AUC values were expressed as a percentage of the response to Iso in the presence of DMSO (set as 100%), enabling comparison of the effect of each modulator relative to this agonist-alone control.

[3] = biological target: T1, βARR1–SRC interaction (Rattus norvegicus, UniProt P29066); experiment: Flag pulldown of βARR1 with SRC; assay type: biochemical; conditions: 20-fold molar excess of compound, 30 min
T1 construct: made in house
Experimental: (§1) To assess the effects of the compounds on βARR1 interactions with its effector proteins SRC and JNK3, βARR1–Flag (5 μM) was incubated with a 20-fold molar excess of Cmpd-5, Cmpd-46 or Cmpd-64 for 30 min at room temperature. Subsequently, 15 μM of SRC or JNK3 was added. To evaluate compound effects on βARR1–ERK2 binding, βARR1 (15 μM) was pre-incubated with a 20-fold molar excess of Cmpd-5, Cmpd-46 or Cmpd-64 for 30 min at room temperature, followed by the addition of 5 μM ERK2–Flag. Afterward, 50 μl of anti-Flag M2 affinity gel (Millipore Sigma) was added, and the mixtures were incubated for 1 h at room temperature with rotation. The resin was then collected by centrifugation and washed 3 times with 1 ml of 20 mM HEPES (pH 7.5), 100 mM NaCl. Bound proteins were eluted using 0.2 mg ml^−1 Flag peptide in 20 mM HEPES (pH 7.5), 100 mM NaCl, mixed with Laemmli sample buffer (Bio-Rad), and analysed by SDS–PAGE followed by western blotting. Detection was performed using monoclonal anti-Flag M2-peroxidase (HRP) antibody (1:2,000, Sigma-Aldrich A8592, RRID:AB_439702) for βARR1–Flag and ERK2–Flag; polyclonal A1CT antibody[76] (1:5,000) for βARR1; anti-SRC monoclonal antibody (1:10,000, EMD Millipore 05-184, RRID:AB_2302631) for SRC; and anti-JNK3 monoclonal antibody (1:5,000, Cell Signaling 2305, RRID:AB_2281744) for JNK3. Western blot images were taken using Bio-Rad ChemiDoc system and the densitometry analysis was performed by ImageLab v6.1 and statistical differences were determined by one-way ANOVA with Dunnett’s post hoc test in GraphPad Prism software.

[4] = biological target: T2, βARR1–JNK3 interaction (Rattus norvegicus, UniProt P29066); experiment: Flag pulldown of βARR1 with JNK3; assay type: biochemical; conditions: 20-fold molar excess of compound, 30 min
T2 construct: made in house
Experimental: as §1

T1 sequence (P29066 whole entry): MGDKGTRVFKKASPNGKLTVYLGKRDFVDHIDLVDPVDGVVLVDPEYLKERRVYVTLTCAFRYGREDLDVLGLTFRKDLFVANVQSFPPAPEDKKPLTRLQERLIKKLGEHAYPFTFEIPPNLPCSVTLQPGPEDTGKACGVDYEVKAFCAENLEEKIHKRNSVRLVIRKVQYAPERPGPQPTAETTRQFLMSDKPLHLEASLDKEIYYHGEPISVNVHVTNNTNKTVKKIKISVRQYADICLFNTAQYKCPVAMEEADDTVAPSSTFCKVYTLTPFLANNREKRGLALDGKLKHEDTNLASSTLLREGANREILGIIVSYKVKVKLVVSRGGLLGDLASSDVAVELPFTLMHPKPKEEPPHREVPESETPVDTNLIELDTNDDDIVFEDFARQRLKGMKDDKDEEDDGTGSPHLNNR
T2 sequence (P29066 whole entry): as above
T2 sequence (P53779 whole entry partner): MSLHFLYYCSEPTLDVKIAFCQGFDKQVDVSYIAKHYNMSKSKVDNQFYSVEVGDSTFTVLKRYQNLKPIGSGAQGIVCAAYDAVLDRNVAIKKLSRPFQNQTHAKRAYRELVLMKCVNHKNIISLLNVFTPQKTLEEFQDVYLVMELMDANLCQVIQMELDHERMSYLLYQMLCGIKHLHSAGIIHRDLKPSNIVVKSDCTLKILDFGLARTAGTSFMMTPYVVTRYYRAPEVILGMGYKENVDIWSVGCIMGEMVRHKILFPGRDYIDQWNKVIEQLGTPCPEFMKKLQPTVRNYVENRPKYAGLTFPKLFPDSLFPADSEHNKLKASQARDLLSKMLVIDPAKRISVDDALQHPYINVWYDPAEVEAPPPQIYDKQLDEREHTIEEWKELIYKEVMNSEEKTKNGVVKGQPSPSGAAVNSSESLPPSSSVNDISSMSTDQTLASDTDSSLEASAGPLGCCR

Row | Structure (SMILES) | binding to Gαi [1] | Iso-induced cAMP accumulation (AUC) relative to DMSO (set to 100%) [2] | effect on βARR1 binding to SRC [3] | effect on βARR1 binding to JNK3 [4]
1 | C=C1C(=O)[C@]23[C@H](O)[C@H]1CC[C@H]2[C@@]12CO[C@]3(O)[C@@H](O)[C@@H]1C(C)(C)CC[C@@H]2O [Cmpd-5, (1S,4aR,5S,6S,6aR,9S,11aS,11bS,14R)-1,5,6,14-tetrahydroxy−4,4-dimethyl-8-methylenedecahydro-1H-6,11b-(epoxymethano)-6a,9-methanocyclohepta[a]naphthalen-7(8H)-one] | no measurable affinity | 191% | reduced | minimal change
2 | C=C1C(=O)C2=CC1CCC(=O)C1(C)CCC(OCC)C(C)(C)C1CC2O (stereo not drawn) [Cmpd-46, (Z)-3-ethoxy-6-hydroxy-4,4,13a-trimethyl-9-methylene-1,2,3,4,4a,5,6,9,10,11,12,13a-dodecahydro-7,10-(metheno)benzo[11]annulene-8,13-dione] | no measurable affinity | 207% | markedly reduced | minimal change
3 | C=C1C(=O)OC2CC3(C)OC3CCC(C)=CC(OC(C)=O)C12 (stereo not drawn) [Cmpd-64, (Z)-4,10a-dimethyl-7-methylene-8-oxo-1a,2,3,6,6a,7,8,9a,10,10a decahydrooxireno[2’,3’:8,9]cyclodeca[1,2-b]furan-6-yl acetate] | very weak binding | 282% | markedly reduced | minimal change
